Consider five molecules from ChEMBL document CHEMBL2074325, “The multidrug resistance protein 5 functions as an ATP-dependent export pump for cyclic nucleotides” (J Biol Chem, 2000).

Type in all cases: functional, cell membranes, Membrane vesicle
Design in all cases: scale not given: the % may be the effect or the level left

Series [1] has as its target T1, MRP5 (ABCC5) (Homo sapiens, UniProt O15440). As to the kind of experiment: TP_TRANSPORTER: inhibition of cGMP uptake (cGMP: 5 uM, Sildenafil: 1 uM) in membrane vesicles from MRP5-expressing V79 cells. The conditions noted are these: hamster, probe cGMP (5 uM), read-out: Activity.
Series [2] deals with T1, MRP5 (ABCC5). As to the kind of experiment: TP_TRANSPORTER: inhibition of cGMP uptake (cGMP: 5 uM, Fluorescein diacetate: 50 uM) in membrane vesicles from MRP5-expressing V79 cells. The conditions noted are these: hamster, probe cGMP (5 uM), read-out: Activity.
Series [3] addresses ATP-binding cassette sub-family C member 5 (Homo sapiens, UniProt O15440). The experiment in a line: TP_TRANSPORTER: inhibition of cGMP uptake (cGMP: 5 uM, Probenecid: 50 uM) in membrane vesicles from MRP5-expressing V79 cells. To be noted: hamster, v79, 50 µM.
In series [4] the target is T1, MRP5 (ABCC5). As to the kind of experiment: TP_TRANSPORTER: inhibition of cGMP uptake (cGMP: 5 uM, Trequinsin: 1 uM) in membrane vesicles from MRP5-expressing V79 cells. The conditions noted are these: hamster, probe cGMP (5 uM), read-out: Activity.
Series [5] addresses T1, MRP5 (ABCC5). The experiment in a line: TP_TRANSPORTER: inhibition of cGMP uptake (cGMP: 5 uM, Zaprinast: 10 uM) in membrane vesicles from MRP5-expressing V79 cells. The conditions noted are these: hamster, probe cGMP (5 uM), read-out: Activity.

T1 sequence (O15440 whole entry): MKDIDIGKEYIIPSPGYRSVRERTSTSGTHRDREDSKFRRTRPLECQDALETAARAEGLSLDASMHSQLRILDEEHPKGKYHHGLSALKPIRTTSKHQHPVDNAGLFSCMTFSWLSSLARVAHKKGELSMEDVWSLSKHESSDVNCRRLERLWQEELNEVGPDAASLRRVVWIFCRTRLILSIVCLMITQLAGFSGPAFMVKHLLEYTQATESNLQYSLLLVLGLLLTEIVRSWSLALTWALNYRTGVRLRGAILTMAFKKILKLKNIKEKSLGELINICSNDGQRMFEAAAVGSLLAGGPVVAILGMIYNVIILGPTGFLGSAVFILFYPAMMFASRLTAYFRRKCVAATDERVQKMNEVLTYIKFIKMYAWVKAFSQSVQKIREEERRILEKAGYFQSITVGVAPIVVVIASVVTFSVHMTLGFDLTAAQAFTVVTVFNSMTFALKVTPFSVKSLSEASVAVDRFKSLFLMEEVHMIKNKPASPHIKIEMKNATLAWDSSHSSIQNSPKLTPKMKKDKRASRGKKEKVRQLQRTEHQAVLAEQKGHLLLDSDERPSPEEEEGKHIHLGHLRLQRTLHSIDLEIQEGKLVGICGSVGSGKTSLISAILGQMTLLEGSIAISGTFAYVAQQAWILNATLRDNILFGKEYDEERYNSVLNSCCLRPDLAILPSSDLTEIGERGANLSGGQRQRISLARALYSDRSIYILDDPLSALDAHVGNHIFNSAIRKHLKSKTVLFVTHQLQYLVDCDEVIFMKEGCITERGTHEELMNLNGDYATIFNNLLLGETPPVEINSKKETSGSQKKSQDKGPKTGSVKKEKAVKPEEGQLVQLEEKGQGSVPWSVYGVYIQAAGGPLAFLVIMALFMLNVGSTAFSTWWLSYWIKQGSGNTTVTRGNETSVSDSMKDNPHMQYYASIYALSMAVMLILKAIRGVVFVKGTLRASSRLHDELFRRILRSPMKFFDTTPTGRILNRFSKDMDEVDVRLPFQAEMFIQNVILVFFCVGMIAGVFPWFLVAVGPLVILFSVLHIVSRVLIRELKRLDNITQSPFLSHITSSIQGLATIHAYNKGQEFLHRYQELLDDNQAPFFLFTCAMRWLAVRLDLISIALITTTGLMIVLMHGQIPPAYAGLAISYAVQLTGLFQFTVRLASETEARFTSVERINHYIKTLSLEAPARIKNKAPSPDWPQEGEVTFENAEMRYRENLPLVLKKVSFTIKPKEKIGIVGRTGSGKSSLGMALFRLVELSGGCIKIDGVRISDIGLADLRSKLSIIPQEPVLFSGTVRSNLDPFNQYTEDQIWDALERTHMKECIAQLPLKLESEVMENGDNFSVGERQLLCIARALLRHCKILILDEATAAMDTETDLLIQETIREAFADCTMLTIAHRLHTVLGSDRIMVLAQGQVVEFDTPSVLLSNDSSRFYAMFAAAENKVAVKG
ATP-binding cassette sub-family C member 5, sequence (O15440 whole entry): as above

`CCCc1nn(C)c2c(=O)[nH]c(-c3cc(S(=O)(=O)N4CCN(C)CC4)ccc3OCC)nc12`: the activity at 1 µM at MRP5 (ABCC5) [1] is 22%.

As for `CC(=O)Oc1ccc2c(c1)Oc1cc(OC(C)=O)ccc1C21OC(=O)c2ccccc21` [FLUORESCEIN DIACETATE], the activity at 50 µM at MRP5 (ABCC5) [2] amounted to 49.2%.

Molecule `CCCN(CCC)S(=O)(=O)c1ccc(C(=O)O)cc1` [PROBENECID] registered an Activity in series [3] of 31.7%.

In the case of `COc1cc2c(cc1OC)-c1c/c(=N\c3c(C)cc(C)cc3C)n(C)c(=O)n1CC2` [TREQUINSIN], the activity at 1 µM at MRP5 (ABCC5) [4] is 26.2%.

Consider `CCCOc1ccccc1-c1nc2nn[nH]c2c(=O)[nH]1` [ZAPRINAST], for which the activity at 10 µM at MRP5 (ABCC5) [5] was 41%.
